# Experimental data reported in PubChem BioAssay AID1845200 (Molecular Pharmacology Branch, DTP, NCI, 2023).
# Where “and” joins values, the source holds several entries; their conditions need not be identical. Equal values may be shown once.
# Tested on: ASPS-1 complex tumor spheroids, viability
# Experiment: Anticancer human tumor ASPS-1 cell line growth inhibition;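 also: spheroids exposed to agents for 7 days after 3 days of growth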;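 as to viability, T/C: 100% = DMSO vehicle treated spheroids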
# Conditions: for viability, T/C: stronger effect = lower value
# How it was run: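 Complex spheroids of malignant cells with endothelial cells and mesenchymal stem cells; agents alone or combined, from near clinical Cmax (or 10 microM if unknown) down in half-log steps, 0.25% DMSO final.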
# [1] = curve of first compound, second compound 0.003 µM
# [2] = curve of first compound, second compound 0.00949 µM
# [3] = curve of first compound, second compound 0.03 µM
# [4] = curve of first compound, second compound 0.0949 µM
# [5] = curve of first compound, second compound 0.3 µM
# [6] = curve of first compound, second compound 1 µM
# [7] = curve of first compound, second compound 3.16 µM
# [8] = curve of first compound, second compound 10 µM
# [9] = curve of first compound, second compound 31.6 µM
# [10] = curve of first compound, second compound 100 µM
# [11] = second compound 1 µM, first compound 0.0316 µM
# [12] = second compound 1 µM, first compound 0.1 µM
# [13] = second compound 1 µM, first compound 0.316 µM
# [14] = second compound 1 µM, first compound 1 µM
# [15] = second compound 1 µM, first compound 3.16 µM
# [16] = second compound 1 µM, first compound 10 µM
# [17] = second compound 3.16 µM, first compound 0.0316 µM
# [18] = second compound 3.16 µM, first compound 0.1 µM
# [19] = second compound 3.16 µM, first compound 0.316 µM
# [20] = second compound 3.16 µM, first compound 1 µM
# [21] = second compound 3.16 µM, first compound 3.16 µM
# [22] = second compound 3.16 µM, first compound 10 µM
# [23] = second compound 10 µM, first compound 0.0316 µM
# [24] = second compound 10 µM, first compound 0.1 µM
# [25] = second compound 10 µM, first compound 0.316 µM
# [26] = second compound 10 µM, first compound 1 µM
# [27] = second compound 10 µM, first compound 3.16 µM
# [28] = second compound 10 µM, first compound 10 µM
# [29] = second compound 31.6 µM, first compound 0.0316 µM
# [30] = second compound 31.6 µM, first compound 0.1 µM
# [31] = second compound 31.6 µM, first compound 0.316 µM
# [32] = second compound 31.6 µM, first compound 1 µM
# [33] = second compound 31.6 µM, first compound 3.16 µM
# [34] = second compound 31.6 µM, first compound 10 µM
# [35] = second compound 100 µM, first compound 0.0316 µM
# [36] = second compound 100 µM, first compound 0.1 µM
# [37] = second compound 100 µM, first compound 0.316 µM
# [38] = second compound 100 µM, first compound 1 µM
# [39] = second compound 100 µM, first compound 3.16 µM
# [40] = second compound 100 µM, first compound 10 µM
structure (smiles),measurement,setting,value
Cn1ncnc1[C@H]1c2n[nH]c(=O)c3cc(F)cc(c23)N[C@@H]1c1ccc(F)cc1 + CC[C@@]1(O)C(=O)OCc2c1cc1n(c2=O)Cc2cc3c(CN(C)C)c(O)ccc3nc2-1,IC50,[1],> 3 µM
same,IC50,[2],> 3 µM
same,IC50,[3],2.61 µM
same,IC50,[4],< 0.00949 µM
same,IC50,[5],< 0.00949 µM
same,"viability, T/C","second compound 0.003 µM, first compound 0.00949 µM",97.5%
same,"viability, T/C","second compound 0.003 µM, first compound 0.03 µM",98.3%
same,"viability, T/C","second compound 0.003 µM, first compound 0.0949 µM",101%
same,"viability, T/C","second compound 0.003 µM, first compound 0.3 µM",98.4%
same,"viability, T/C","second compound 0.003 µM, first compound 0.949 µM",98.8%
same,"viability, T/C","second compound 0.003 µM, first compound 3 µM",76.5%
same,"viability, T/C","second compound 0.00949 µM, first compound 0.00949 µM",103%
same,"viability, T/C","second compound 0.00949 µM, first compound 0.03 µM",92%
same,"viability, T/C","second compound 0.00949 µM, first compound 0.0949 µM",100%
same,"viability, T/C","second compound 0.00949 µM, first compound 0.3 µM",95.7%
same,"viability, T/C","second compound 0.00949 µM, first compound 0.949 µM",86.6%
same,"viability, T/C","second compound 0.00949 µM, first compound 3 µM",69.5%
same,"viability, T/C","second compound 0.03 µM, first compound 0.00949 µM",78.4%
same,"viability, T/C","second compound 0.03 µM, first compound 0.03 µM",75.9%
same,"viability, T/C","second compound 0.03 µM, first compound 0.0949 µM",67.4%
same,"viability, T/C","second compound 0.03 µM, first compound 0.3 µM",61.4%
same,"viability, T/C","second compound 0.03 µM, first compound 0.949 µM",56.6%
same,"viability, T/C","second compound 0.03 µM, first compound 3 µM",49%
same,"viability, T/C","second compound 0.0949 µM, first compound 0.00949 µM",47%
same,"viability, T/C","second compound 0.0949 µM, first compound 0.03 µM",40.9%
same,"viability, T/C","second compound 0.0949 µM, first compound 0.0949 µM",43.5%
same,"viability, T/C","second compound 0.0949 µM, first compound 0.3 µM",38.2%
same,"viability, T/C","second compound 0.0949 µM, first compound 0.949 µM",38%
same,"viability, T/C","second compound 0.0949 µM, first compound 3 µM",34.1%
same,"viability, T/C","second compound 0.3 µM, first compound 0.00949 µM",46.9%
same,"viability, T/C","second compound 0.3 µM, first compound 0.03 µM",41.9%
same,"viability, T/C","second compound 0.3 µM, first compound 0.0949 µM",40%
same,"viability, T/C","second compound 0.3 µM, first compound 0.3 µM",41.3%
same,"viability, T/C","second compound 0.3 µM, first compound 0.949 µM",40.1%
same,"viability, T/C","second compound 0.3 µM, first compound 3 µM",39%
[2H]c1nc(C)nc([2H])c1-c1cc(NC[C@@H](C)c2cccc3c(C(=O)NC)ccnc23)ncn1 + Cn1nnc2c(C(N)=O)ncn2c1=O,IC50,[6],> 10 µM
same,IC50,[7],> 10 µM
same,IC50,[8],> 10 µM
same,IC50,[9],> 10 µM
same,IC50,[10],> 10 µM
same,"viability, T/C",[11],106%
same,"viability, T/C",[12],100%
same,"viability, T/C",[13],98.3%
same,"viability, T/C",[14],101%
same,"viability, T/C",[15],95.8%
same,"viability, T/C",[16],99.2%
same,"viability, T/C",[17],104%
same,"viability, T/C",[18],104%
same,"viability, T/C",[19],103%
same,"viability, T/C",[20],104%
same,"viability, T/C",[21],101%
same,"viability, T/C",[22],98.3%
same,"viability, T/C",[23],88.4%
same,"viability, T/C",[24],93.2%
same,"viability, T/C",[25],96.4%
same,"viability, T/C",[26],90.1%
same,"viability, T/C",[27],89.5%
same,"viability, T/C",[28],89.7%
same,"viability, T/C",[29],79.8%
same,"viability, T/C",[30],80.2%
same,"viability, T/C",[31],81.1%
same,"viability, T/C",[32],79.7%
same,"viability, T/C",[33],78.3%
same,"viability, T/C",[34],76.4%
same,"viability, T/C",[35],74.2%
same,"viability, T/C",[36],72.5%
same,"viability, T/C",[37],74.5%
same,"viability, T/C",[38],66.5%
same,"viability, T/C",[39],68.4%
same,"viability, T/C",[40],65.8%
COc1ccc([C@@H](O)c2cc(-c3ncnc4cc(N5CCOCC5)ccc34)c(F)cc2Cl)nn1 + Cn1nnc2c(C(N)=O)ncn2c1=O,IC50,[6],9.75 µM
same,IC50,[7],> 10 µM
same,IC50,[8],6.72 µM
same,IC50,[9],2.61 µM
same,IC50,[10],1.73 µM
same,"viability, T/C",[11],107%
same,"viability, T/C",[12],103%
same,"viability, T/C",[13],106%
same,"viability, T/C",[14],101%
same,"viability, T/C",[15],92%
same,"viability, T/C",[16],48.4%
same,"viability, T/C",[17],103%
same,"viability, T/C",[18],102%
same,"viability, T/C",[19],105%
same,"viability, T/C",[20],99.8%
same,"viability, T/C",[21],75.7%
same,"viability, T/C",[22],53.1%
same,"viability, T/C",[23],92%
same,"viability, T/C",[24],94.9%
same,"viability, T/C",[25],99%
same,"viability, T/C",[26],79.2%
same,"viability, T/C",[27],69.8%
same,"viability, T/C",[28],40.3%
same,"viability, T/C",[29],82.7%
same,"viability, T/C",[30],83.7%
same,"viability, T/C",[31],77.2%
same,"viability, T/C",[32],67.7%
same,"viability, T/C",[33],46.2%
same,"viability, T/C",[34],33.8%
same,"viability, T/C",[35],82.1%
same,"viability, T/C",[36],67.6%
same,"viability, T/C",[37],64.7%
same,"viability, T/C",[38],57.1%
same,"viability, T/C",[39],44.5%
same,"viability, T/C",[40],33.2%
CC(C)n1c(=O)n(C)c2cnc3cc(F)c(-c4ccc(OCCCN5CCCCC5)nc4)cc3c21,"viability, T/C",compound 0.0316 µM,95.5% and 110% and 106%
same,"viability, T/C",compound 0.1 µM,108% (2×) and 107%
same,"viability, T/C",compound 0.316 µM,103% and 105% and 101%
same,"viability, T/C",compound 1 µM,95.2% and 106% and 100%
same,"viability, T/C",compound 3.16 µM,93% and 98.2% and 95.5%
same,"viability, T/C",compound 10 µM,63.6% and 56.2% and 38.7%
same,IC50,curve of compound,> 10 µM and 7.97 µM
COc1ccc([C@@H](O)c2cc(-c3ncnc4cc(N5CCOCC5)ccc34)c(F)cc2Cl)nn1 + CC[C@@]1(O)C(=O)OCc2c1cc1n(c2=O)Cc2cc3c(CN(C)C)c(O)ccc3nc2-1,IC50,[1],8.87 µM
same,IC50,[2],6.69 µM
same,IC50,[3],3.02 µM
same,IC50,[4],0.33 µM
same,IC50,[5],0.214 µM
same,"viability, T/C","second compound 0.003 µM, first compound 0.0316 µM",110%
same,"viability, T/C","second compound 0.003 µM, first compound 0.1 µM",106%
same,"viability, T/C","second compound 0.003 µM, first compound 0.316 µM",101%
same,"viability, T/C","second compound 0.003 µM, first compound 1 µM",98.1%
same,"viability, T/C","second compound 0.003 µM, first compound 3.16 µM",80.3%
same,"viability, T/C","second compound 0.003 µM, first compound 10 µM",46.1%
same,"viability, T/C","second compound 0.00949 µM, first compound 0.0316 µM",104%
same,"viability, T/C","second compound 0.00949 µM, first compound 0.1 µM",104%
same,"viability, T/C","second compound 0.00949 µM, first compound 0.316 µM",101%
same,"viability, T/C","second compound 0.00949 µM, first compound 1 µM",90.2%
same,"viability, T/C","second compound 0.00949 µM, first compound 3.16 µM",66.6%
same,"viability, T/C","second compound 0.00949 µM, first compound 10 µM",41.1%
same,"viability, T/C","second compound 0.03 µM, first compound 0.0316 µM",82%
same,"viability, T/C","second compound 0.03 µM, first compound 0.1 µM",87.9%
same,"viability, T/C","second compound 0.03 µM, first compound 0.316 µM",82.8%
same,"viability, T/C","second compound 0.03 µM, first compound 1 µM",73.8%
same,"viability, T/C","second compound 0.03 µM, first compound 3.16 µM",49.1%
same,"viability, T/C","second compound 0.03 µM, first compound 10 µM",31.9%
same,"viability, T/C","second compound 0.0949 µM, first compound 0.0316 µM",56.1%
same,"viability, T/C","second compound 0.0949 µM, first compound 0.1 µM",54.7%
same,"viability, T/C","second compound 0.0949 µM, first compound 0.316 µM",50.6%
same,"viability, T/C","second compound 0.0949 µM, first compound 1 µM",31.4%
same,"viability, T/C","second compound 0.0949 µM, first compound 3.16 µM",22.7%
same,"viability, T/C","second compound 0.0949 µM, first compound 10 µM",26.1%
same,"viability, T/C","second compound 0.3 µM, first compound 0.0316 µM",62.5%
same,"viability, T/C","second compound 0.3 µM, first compound 0.1 µM",58.4%
same,"viability, T/C","second compound 0.3 µM, first compound 0.316 µM",45.7%
same,"viability, T/C","second compound 0.3 µM, first compound 1 µM",32.4%
same,"viability, T/C","second compound 0.3 µM, first compound 3.16 µM",23.9%
same,"viability, T/C","second compound 0.3 µM, first compound 10 µM",16.4%
